Results reported in patent publication US20250250310A1, “COMBINATION THERAPY WITH ADP-RIBOSE BINDING PEPTIDE AND ADP-RIBOSE FOR PREVENTION OR TREATMENT OF CANCER” (PEARLSINMIRES CO., LTD., priority 2023, published 2025).
Where a SMILES comes first, the peptide text is derived from it. [ ]: non-standard residue; d: D form. The star is where a group is joined. Stearoyl = CCCCCCCCCCCCCCCCCC(=O)*; AEEA = NCCOCCOCC(=O)O

Experiments:
MDA-MB-231 cancer cells = test: MDA-MB-231 cell viability (MTT), sustained release derivative alone or in combination; assay type: cell-based; conditions: 96 hours
Method: Each of 2.5×10^3 human-derived pancreatic cancer (Aspc-1), kidney cancer (Caki-1), breast cancer (HCC1937), liver cancer (HepG2), lung cancer (H1975), colon cancer (HCT116), ovarian cancer (OVCAR-3), brain cancer (U87) cells were cultured in a 96-well plate under 37° C. and 5% CO2 conditions for 24 hours, and then treated with the sustained release derivative alone. In addition, MDA-MB-231 cancer cells were divided into the following groups and treated with each formulation at GI20 concentration alone or in combination. • 1) Untreated group • 2) Group treated with sustained-release derivative alone at 5 μM concentration • 3) Group treated with ADPR at 2 mM concentration alone • 4) Group treated with NAD^+ at 2 mM concentration alone • 5) Groups treated with various anti-cancer drugs alone (Cisplatin at 2 μM, Docetaxel at 1 μM, Dichloroacetate at 3 mM, Doxorubicin at 2 μM, Sorafenib at 2 μM, Osimertinib at 10 nM, Trastuzumab at 0.2 μM, Bevacizumab at 0.2 nM, Tamoxifen at 0.2 μM, or Olaparib at 1 μM) • 6) Group treated in combination with ADPR at 2 mM concentration and a sustained-release derivative at 5 μM concentration • 7) Group treated in combination with ADPR at 2 mM concentration, NAD^+ at 2 mM concentration, and a sustained-release derivative at 5 μM concentration • 8) Group treated in combination with ADPR at 2 mM concentration, a sustained-release derivative at 5 μM concentration, and various anti-cancer drugs (same concentration as Group 5 above).
(§1) The cells were then cultured for another 96 hours at 37° C. and 5% CO2, and 10 μl of 3-(4,5-dimethylthiazol-2-yl)-2,5-diphenyltetrazolium bromide reagent was added to each well and reacted for 1 hour. The reagent was removed at the end of the reaction, 200 μl of dimethyl sulfoxide was then added to each well, and the absorbance was measured to determine the cell viability.

[1] = test system: Kidney cancer (Caki-1) cells; test: Caki-1 cell viability (MTT), peptides and ADP-ribose alone or in combination; assay type: cell-based, human; conditions: treated groups vs untreated, ADPR 1 mM, peptide 25 μM, CPP-peptide 10 μM, 96 hours
Method: (§2) 2.5×10^3 Kidney cancer (Caki-1) cells were cultured in a 96-well plate for 24 hours under 37° C. and 5% CO2 conditions, and then divided into the following groups and treated with each peptide according to Examples at GI50 concentration alone or in combination. • 1) Untreated group • 2) Group treated with ADPR at 1 mM concentration alone • 3) Group treated with peptide of Example 1 at 25 μM concentration alone • 4) Group treated with each CPP-peptide of Example 15 at 10 μM concentration alone • 5) Group treated in combination with ADPR at 1 mM concentration and peptide of Example 1 at 25 μM concentration (Combination 1) • 6) Group treated in combination with ADPR at 1 mM concentration and CPP-peptide of Example 15 at 10 μM concentration (Combination 2)
as §1, with “hours under” for “hours at”, “5% CO2 conditions,” for “5% CO2,”

[2] = test system: Breast cancer (HCC1937) cells; test: HCC1937 cell viability (MTT), peptides and ADP-ribose alone or in combination; assay type: cell-based, human; conditions: treated groups vs untreated, ADPR 1 mM, peptide 25 μM, CPP-peptide 10 μM, 96 hours
Method: as §2, with “2.5×10^3 Breast” for “2.5×10^3 Kidney”, “cancer (HCC1937)” for “cancer (Caki-1)”, “Example 2” for “Example 1”, “Example 16” for “Example 15”
as §1, with “hours under” for “hours at”, “5% CO2 conditions,” for “5% CO2,”

[3] = test system: Lung cancer (H1975) cells; test: H1975 cell viability (MTT), peptides and ADP-ribose alone or in combination; assay type: cell-based, human; conditions: treated groups vs untreated, ADPR 1 mM, peptide 25 μM, CPP-peptide 10 μM, 96 hours
Method: as §2, with “2.5×10^3 Lung” for “2.5×10^3 Kidney”, “cancer (H1975)” for “cancer (Caki-1)”, “Example 5” for “Example 1”, “Example 19” for “Example 15”
as §1, with “hours under” for “hours at”, “5% CO2 conditions,” for “5% CO2,”

[4] = test system: Liver cancer (HepG2) cells; test: HepG2 cell viability (MTT), peptides and ADP-ribose alone or in combination; assay type: cell-based, human; conditions: treated groups vs untreated, ADPR 1 mM, peptide 25 μM, CPP-peptide 10 μM, 96 hours
Method: as §2, with “2.5×10^3 Liver” for “2.5×10^3 Kidney”, “cancer (HepG2)” for “cancer (Caki-1)”, “Example 4” for “Example 1”, “Example 18” for “Example 15”
as §1, with “hours under” for “hours at”, “5% CO2 conditions,” for “5% CO2,”

[5] = test system: PARP inhibitor-resistant breast cancer (HCC1937) cells; test: Cell viability (MTT) in PARP inhibitor-resistant cancer cell line; assay type: cell-based, human; conditions: 96 hours
Method: Specifically, 2.5×10^3 PARP inhibitor-resistant breast cancer (HCC1937) cells were cultured in a 96-well plate for 24 hours under 37° C. and 5% CO2 conditions.
The cells were then divided into the following groups and treated with each peptide according to Examples at GI50 concentration alone or in combination. • 1) Untreated group • 2) Group treated with PARP inhibitor (Olaparib) at 2 μM concentration • 3) Group treated with ADPR at 1 mM concentration alone • 4) Groups treated with each peptide of Examples 1 to 6 at 25 μM concentration alone • 5) Groups treated with each CPP-peptide of Examples 15 to 20 at 10 μM concentration alone • 6) Group treated in combination with ADPR at 1 mM concentration and each peptide of Examples 1 to 6 at 25 μM concentration (Combination 1) • 6) Group treated in combination with ADPR at 1 mM concentration and CPP-peptide of Examples 15 to 20 at 10 μM concentration (Combination 2)
as §1, with “hours under” for “hours at”, “5% CO2 conditions,” for “5% CO2,”

[6] = test system: Pancreatic cancer (AsPC-1) cells; test: AsPC-1 cell viability (MTT), peptides and ADP-ribose alone or in combination; assay type: cell-based, human; conditions: treated groups vs untreated, ADPR 1 mM, peptide 25 μM, CPP-peptide 10 μM, 96 hours
Method: as §2, with “2.5×10^3 Pancreatic” for “2.5×10^3 Kidney”, “cancer (AsPC-1)” for “cancer (Caki-1)”, “Example 3” for “Example 1”, “Example 17” for “Example 15”
as §1, with “hours under” for “hours at”, “5% CO2 conditions,” for “5% CO2,”

[7] = test system: Colon cancer (HCT116) cells; test: HCT116 cell viability (MTT), peptides and ADP-ribose alone or in combination; assay type: cell-based, human; conditions: treated groups vs untreated, ADPR 1 mM, peptide 25 μM, CPP-peptide 10 μM, 96 hours
Method: as §2, with “2.5×10^3 Colon” for “2.5×10^3 Kidney”, “cancer (HCT116)” for “cancer (Caki-1)”, “Example 6” for “Example 1”, “Example 20” for “Example 15”
as §1, with “hours under” for “hours at”, “5% CO2 conditions,” for “5% CO2,”

[8] = test system: ovarian cancer (OVCAR-3) cells; test: OVCAR-3 cell viability (MTT), peptides and NAD^+ alone or in combination; assay type: cell-based, human; conditions: NAD^+ 1 mM alone, 96 hours
Method: Specifically, 2.5×10^3 ovarian cancer (OVCAR-3) cells were cultured in a 96-well plate for 24 hours under 37° C. and 5% CO2 conditions, and then divided into the following groups and treated with each peptide according to Examples at GI50 concentration alone or in combination. • 1) Untreated group • 2) Group treated with NAD^+ at 1 mM concentration alone • 3) Group treated with peptide of Example 2 at 25 μM concentration alone • 4) Group treated with CPP-peptide of Example 16 at 10 μM concentration alone • 5) Group treated in combination with NAD^+ at 1 mM concentration and peptide of Example 2 at 25 μM concentration (Combination 1) • 6) Group treated in combination with NAD^+ at 1 mM concentration and CPP-peptide of Example 16 at 10 μM concentration (Combination 2)
as §1, with “hours under” for “hours at”, “5% CO2 conditions,” for “5% CO2,”

[9] = Normal cytotoxicity of sustained release derivative alone or in combination (MTT); assay type: cell-based; conditions: human, MRC5 cells (normal), sustained-release derivative alone, read-out: viability of normal cells compared to the untreated group
Method: In a 96-well plate, 2.5×10^3 human-derived normal MRC5 cells were cultured for 24 hours under 37° C. and 5% CO2 conditions, and then treated with the sustained-release derivative and ADPR alone or in combination.
as §1, with “hour. The MTT reagent was” for “hour. The reagent was”

Structure (SMILES): Nc1ncnc2c1ncn2[C@@H]1O[C@H](COP(=O)(O)OP(=O)(O)OC[C@H]2O[C@@H](O)C(O)C2O)C(O)C1O (some centres unmarked) [ADP-ribose]
- cell viability (MDA-MB-231 cancer cells; single treatment (derivative 5 μM, ADPR 2 mM, NAD^+ 2 mM, anti-cancer drugs)): 80%
- cell viability [1]: viability was reduced
- cell viability [2]: viability was reduced
- cell viability [3]: viability was reduced
- cell viability [4]: viability was reduced
- cell viability, single treatment ([5]; ADPR 1 mM, peptide 25 μM or CPP-peptide 10 μM alone): significantly reduced cell viability
- cell viability [6]: viability was reduced
- cell viability [7]: viability was reduced

Structure (SMILES): NC(=O)c1ccc[n+]([C@@H]2O[C@H](COP(=O)(O)OP(=O)(O)OC[C@H]3O[C@@H](n4cnc5c(N)ncnc54)[C@H](O)[C@@H]3O)[C@@H](O)[C@H]2O)c1 [NAD^+, nicotinamide adenine dinucleotide]
- viability at 2000 µM (MDA-MB-231 cancer cells; Homo sapiens, single treatment (derivative 5 μM, ADPR 2 mM, NAD^+ 2 mM, anti-cancer drugs)): 80%
- cell growth / viability vs control group [8]: not significantly different from the control group

Structure (SMILES): O=C(c1cc(Cc2n[nH]c(=O)c3ccccc23)ccc1F)N1CCN(C(=O)C2CC2)CC1 [Olaparib, reference compound]
- viability at 2 µM ([5]; Homo sapiens, Olaparib 2 μM alone, read-out: cancer cells viable): ~80%

Structure (SMILES): CCCCCCCCCCCCCCCCCC(=O)NCCCC[C@H](NC(=O)[C@H](CCCNC(=N)N)NC(=O)[C@H](CCCNC(=N)N)NC(=O)[C@H](CCCNC(=N)N)NC(=O)CNC(=O)[C@H](Cc1c[nH]cn1)NC(=O)[C@H](CCC(=O)O)NC(=O)[C@H](CC(N)=O)NC(=O)[C@H](CCCNC(=N)N)NC(=O)[C@H](CCCNC(=N)N)NC(=O)[C@H](Cc1ccc(O)cc1)NC(=O)[C@H](CCC(N)=O)NC(=O)[C@@H](NC(=O)[C@H](CCSC)NC(=O)[C@H](CC(N)=O)NC(=O)[C@H](CCC(=O)O)NC(=O)[C@H](CC(C)C)NC(=O)[C@H](CC(=O)O)NC(=O)[C@H](C)NC(=O)[C@@H](NC(=O)[C@H](Cc1ccc(O)cc1)NC(=O)[C@H](CC(C)C)NC(=O)[C@H](Cc1ccccc1)NC(=O)[C@H](CCC(N)=O)NC(=O)[C@@H]1CCCN1C(=O)[C@H](CCCNC(=N)N)NC(=O)[C@H](CCCNC(=N)N)NC(=O)[C@H](CCCNC(=N)N)NC(=O)[C@H](CCC(N)=O)NC(=O)[C@H](CCCNC(=N)N)NC(=O)[C@H](CCCNC(=N)N)NC(=O)[C@H](CCCCN)NC(=O)[C@H](CCCCN)NC(=O)[C@H](CCCNC(=N)N)NC(=O)CNC(=O)COCCOCCN)C(C)C)C(C)C)C(=O)N[C@H](C(=O)N[C@@H](CCCCN)C(=O)N[C@@H](CCCNC(=N)N)C(N)=O)[C@@H](C)CC [sustained-release derivative] (H-[AEEA]GRKKRRQRRRPQFLYVADLENMVQYRRNEHGRRRK(Stearoyl)IKR-NH2; C-terminus assumed)
- cytotoxicity, triple-drug combination (MDA-MB-231 cancer cells; sustained-release derivative 5 μM + ADPR 2 mM + NAD^+ 2 mM or various anti-cancer drugs): significantly superior cytotoxicity
- cytotoxicity, combination with ADPR (MDA-MB-231 cancer cells; sustained-release derivative 5 μM + ADPR 2 mM): showed cytotoxicity
- viability at 96 h [9]: ≥ 90%
